Assay results: paper PMC6835953, “Formulation Composition and Process Affect Counterion for CSP7 Peptide” (Pharmaceutics, 2019)
Where two headings read alike, the source gives them in different places. Blank lines part the entries; values can stand above or below the molecule they belong to. Where no end group is shown, it is not given here.

How the values were obtained:
[1] = Water sorption-desorption isotherm (dynamic vapor sorption); format: physicochemical; conditions: bulk powder, 25 °C, sorption-desorption cycle
Protocol: Water sorption isotherms at 25 °C were determined for lyophilized formulations using a dynamic vapor sorption (DVS-1) microbalance (Surface Measurement Systems, London, UK). A quartz pan was filled with about 8–10 mg of powder. Samples were dried with nitrogen gas until a baseline was established less than 0.002% change in dm/dt for 120 min. Each formulation was run through a full sorption-desorption cycle from 0% to 90% RH in steps of 10% RH at 25 °C. Humidity was increased/decreased by 10% after equilibrium was reached, as determined by a dm/dt less than 0.0075% within an interval of 5 min. Sorption-desorption isotherms were calculated and plotted based on their percent change in mass compared to the initial dry formulation weight (Equation (2)):(2) % Mass sorption/desorption =(Increase or decrease in mass from water sorption/desorption/mass of dry powder at initial equilibration (0% RH))× 100

physchem = format: physicochemical
Protocol: The samples were shaken on a vortex mixer for 5 min and on an orbital shaker at 100 rpm for 3 h. The samples were collected and centrifuged at 12,000 rpm for 15 min. The supernatants of the samples were collected and analyzed using HPLC as described in Section 2.6 below.
(§1) CSP7 was chemically analyzed with a Thermo Scientific™ Dionex™ UltiMate™ 3000 HPLC System (Thermo Scientific, Sunnyvale, CA, USA) with a wavelength of 220 nm. The two mobile phases were designated Phase A (0.1% trifluoroacetic acid in water) and Phase B (0.09% trifluoroacetic acid in a mixture of 20:80 water and acetonitrile). The HPLC gradient that operated at 1.0 mL·min^−1 ran from 25% to 35% for mobile Phase B for 20 min then equilibrated at 25% for 5 min. An Ultimate 3000 Autosampler was utilized to inject 20 μL samples. Injections were passed through a Phenomenex® Luna 5 μm C18(2) 100 Å, 150 mm × 4.6 mm (Phenomenex, Torrance, CA, USA), maintained at ambient temperature. The retention time of CSP7 was approximately 8.3 min. The standard curve of the CSP7 (concentrations of 0.015625–1.00 mg·mL^−1) were prepared. All analyses maintained linearity in the range tested. Chromeleon Version 6.80 software (Thermo Scientific) was used to process all chromatography data.

[2] = format: physicochemical; conditions: DPBS; for Recovery of CSP7 in the aggregates / Recovery of CSP7 in the supernatant: 12 h shaking
Protocol: (§2) The peptide solution was prepared in DPBS and TBS at 0.5 mg·ml^−1 of free peptide. The ammonium hydroxide was added to the solution to dissolve the peptide until a clear solution was obtained.
The peptide solutions were shaken on a VWR standard orbital shaker model 1000 (Radnor, PA, USA) at 200 rpm at 5 °C and 25 °C. The samples were collected at 0.5, 1, 3, 6, and 12 h, and they were analyzed using HPLC as described in Section 2.6 below. The CSP7 aggregates were also collected and analyzed using ^1H-NMR as described in Section 2.14 below.
as §1

[3] = Solution storage stability (HPLC recovery); format: physicochemical
Protocol: as §2
The peptide solutions were stored at −80 °C, −20 °C, 2−8 °C, and at room temperature (25 °C). The samples were collected after 24 h and 48 h and analyzed using HPLC as described in Section 2.6 below.
as §1

[4] = Molar ratio of counterions to CSP7 by solution 1H/19F NMR; format: physicochemical; conditions: bulk powder, initial vs after exposure to 90% RH, Equation (6)
Protocol: We acquired ^1H-NMR spectra using a Varian® NMR 600 MHz Spectrometer (Agilent Inc., Palo Alto, CA, USA) at 25 °C. The lyophilized samples were reconstituted in deuterium oxide at 1.0 mg·mL^−1. We added 5 μL of 1 N NaOH/D2O was added to the sample to dissolve the peptides. Solutions were then transferred to 5 mm NMR tubes for NMR data acquisition. Chemical shifts were referenced to a residual solvent, H2O, at 4.61 ppm. At this time, the ^1H-NMR spectra were acquired using an Agilent Direct Drive 600 spectrometer, operating at a proton frequency of 599.75 MHz (14.1 T) at 298 K, equipped with an AutoX DB probe. All ^1H-NMR spectra were recorded in D2O after 128 cycles for each sample. The molar ratio of counterion to peptide was calculated according to the peak area of the methyl group of CSP7 (0.85, 0.93, and 1.03 ppm; 18 H atoms in total) and the methyl group of the acetate counterion (1.75 ppm; 3 H atoms). […]
We acquired ^19F-NMR spectra using a Varian® NMR 600 MHz Spectrometer (Agilent Inc., Palo Alto, CA, USA) at 25 °C. […] All ^19F NMR spectra were recorded in D2O after 512 cycles for each sample. The molar ratio of counterion to peptide was calculated according to the peak area of fluorine atoms of the trifluoroacetate counterion (−75.5 ppm, 3 F atoms) and the […] (−107.7, −110.9, and −133.5 ppm; 1F atom each). […]

[5] = format: physicochemical
Protocol: as §2
Freeze-thaw cycles were studied at −20 °C and −80 °C. The peptide solutions were frozen at each temperature for 1 h and then thawed at room temperature (25 °C) for 1 h. The freeze-thaw cycle was repeated for 5 cycles. The samples were collected at the end of each cycle and analyzed using HPLC as described in Section 2.6 below.
as §1

[6] = Thermogravimetric analysis overlaid with DSC; conditions: after boiling at ~190 °C (melting at ~130 °C)
Protocol: Thermogravimetric Analysis (TGA) was performed for ammonium acetate and ammonium TFA using a TA Thermogravimetric Analyzer Q500 (TA, Instruments, New Castle, DE, USA). Standard aluminum pans were filled with about 5–7 mg of powder. Temperature ramp experiments were performed from 30 °C to 300 °C at a rate of 5 °C·min^−1 with a nitrogen purge at 50 mL·min^−1.
Differential scanning calorimetry (DSC) analysis was performed using a TA Instruments 175 Model Auto Q20 DSC. Samples of 5–7 mg were weighed and placed into standard aluminum pans. The scans were performed at a ramp rate of 5 °C·min^−1 in the range of 30–300 °C. During the analyses, high-purity nitrogen flowed through the sample chamber at a rate of 50 mL·min^−1.

[7] = cited from earlier work

Decrease in weight in moisture desorption isotherm compared to initial weight [1]: no change in weight
Solubility (physchem; 3 h, pH 10): 4134 ± 320 µg/mL
solubility at 3 h (physchem; pH 8, Solubility): 1220 ± 24 µg/mL
Molecule: FTTFTVT [CSP7 TFA]

Recovery of CSP7 in the aggregates ([2]; 5 °C): 31.7 ± 2.3%
Recovery of CSP7 in the supernatant ([2]; 5 °C): 67.8 ± 5.8%
Recovery of CSP7 in the aggregates ([2]; 25 °C): 38.3 ± 2.8%
Recovery of CSP7 in the supernatant ([2]; 25 °C): 59.7 ± 1.5%
Shaking time after which peptide aggregation was found ([2]; orbital shaker, 5 °C and 25 °C): 6 h
Decrease in weight in moisture desorption isotherm compared to initial weight [1]: 6.36%
solubility at 3 h (physchem; pH 2, Solubility): 701 ± 153 µg/mL
solubility at 3 h (physchem; pH 3.5, Solubility): 241 ± 7 µg/mL
solubility at 3 h (physchem; pH 4.5, Solubility): 160 ± 3 µg/mL
solubility at 3 h (physchem; pH 5.5, Solubility): 174 ± 16 µg/mL
solubility at 3 h (physchem; pH 6.5, Solubility): 178 ± 13 µg/mL
solubility at 3 h (physchem; pH 7.5, Solubility): 347 ± 14 µg/mL
solubility at 3 h (physchem; pH 10, Solubility): 2880 ± 201 µg/mL
Recovery in bulk solution after storage ([3]; DPBS, 24 h, 5 °C): 99.9 ± 0.1%
Recovery in bulk solution after storage ([3]; DPBS, 24 h, 25 °C): 100.1 ± 0.1%
Recovery in bulk solution after storage ([3]; DPBS, 24 h, −20 °C): 100.2 ± 0.8%
Recovery in bulk solution after storage ([3]; DPBS, 24 h, −80 °C): 100.0 ± 0.1%
Recovery in bulk solution after storage ([3]; DPBS, 48 h, 5 °C): 99.9 ± 0.1%
Recovery in bulk solution after storage ([3]; DPBS, 48 h, 25 °C): 99.9 ± 0.3%
Recovery in bulk solution after storage ([3]; DPBS, 48 h, −20 °C): 100.3 ± 0.7%
Recovery in bulk solution after storage ([3]; DPBS, 48 h, −80 °C): 100.0 ± 0.1%
Recovery in bulk solution after storage ([3]; TBS, 24 h, 5 °C): 100.1 ± 0.2%
Recovery in bulk solution after storage ([3]; TBS, 24 h, 25 °C): 100.2 ± 0.3%
Recovery in bulk solution after storage ([3]; TBS, 24 h, −20 °C): 100.2 ± 0.2%
Recovery in bulk solution after storage ([3]; TBS, 24 h, −80 °C): 100.1 ± 0.2%
Recovery in bulk solution after storage ([3]; TBS, 48 h, 5 °C): 100.1 ± 0.1%
Recovery in bulk solution after storage ([3]; TBS, 48 h, 25 °C): 100.3 ± 0.1%
Recovery in bulk solution after storage ([3]; TBS, 48 h, −20 °C): 100.5 ± 0.2%
Recovery in bulk solution after storage ([3]; TBS, 48 h, −80 °C): 100.5 ± 0.4%
Recovery of CSP7 in DPBS and TBS ([3]; after 48 h storage at −80 °C, −20 °C, 5 °C and 25 °C): about 100%
Percentage of mass loss calculated from NMR molar ratios of acetate to CSP7 [4]: 6.37%
CSP7 remaining in DPBS and TBS [5]: about 100%
Recovery in bulk solution after freeze-thaw ([5]; DPBS, −20 °C, cycle 1): 100.3 ± 0.2%
Recovery in bulk solution after freeze-thaw ([5]; DPBS, −20 °C, cycle 2): 100.7 ± 0.1%
Recovery in bulk solution after freeze-thaw ([5]; DPBS, −20 °C, cycle 3): 100.7 ± 0.1%
Recovery in bulk solution after freeze-thaw ([5]; DPBS, −20 °C, cycle 4): 101.0 ± 0.2%
Recovery in bulk solution after freeze-thaw ([5]; DPBS, −20 °C, cycle 5): 101.3 ± 0.2%
Recovery in bulk solution after freeze-thaw ([5]; DPBS, −80 °C, cycle 1): 99.8 ± 0.2%
Recovery in bulk solution after freeze-thaw ([5]; DPBS, −80 °C, cycle 2): 100.1 ± 0.1%
Recovery in bulk solution after freeze-thaw ([5]; DPBS, −80 °C, cycle 3): 100.2 ± 0.2%
Recovery in bulk solution after freeze-thaw ([5]; DPBS, −80 °C, cycle 4): 100.4 ± 0.1%
Recovery in bulk solution after freeze-thaw ([5]; DPBS, −80 °C, cycle 5): 100.9 ± 0.1%
Recovery in bulk solution after freeze-thaw ([5]; TBS, −20 °C, cycle 1): 99.4 ± 0.3%
Recovery in bulk solution after freeze-thaw ([5]; TBS, −20 °C, cycle 2): 99.6 ± 0.1%
Recovery in bulk solution after freeze-thaw ([5]; TBS, −20 °C, cycle 3): 99.7 ± 0.2%
Recovery in bulk solution after freeze-thaw ([5]; TBS, −20 °C, cycle 4): 99.8 ± 0.2%
Recovery in bulk solution after freeze-thaw ([5]; TBS, −20 °C, cycle 5): 100.2 ± 0.1%
Recovery in bulk solution after freeze-thaw ([5]; TBS, −80 °C, cycle 1): 99.9 ± 0.3%
Recovery in bulk solution after freeze-thaw ([5]; TBS, −80 °C, cycle 2): 100.3 ± 0.2%
Recovery in bulk solution after freeze-thaw ([5]; TBS, −80 °C, cycle 3): 100.4 ± 0.2%
Recovery in bulk solution after freeze-thaw ([5]; TBS, −80 °C, cycle 4): 100.7 ± 0.2%
Recovery in bulk solution after freeze-thaw ([5]; TBS, −80 °C, cycle 5): 100.6 ± 0.4%
Molecule: FTTFTVT [CSP7 acetate]

Molecule: N.O=C(O)C(F)(F)F [ammonium TFA]
Mass remaining in TGA [6]: 0%

Molecule: CC(=O)O.N [ammonium acetate]
Vapor pressure ([7]; at 25 °C): 13.9 mm Hg
Boiling point [7]: 138.5 °C
